{"source": "patent US9796755B2", "about": "“Methods of treating depression and other related diseases” (Northwestern University, priority 2009, dated 2017)", "key": {"[1]": {"test_system": "patients suffering with refractory depression", "settings": "cited from earlier work"}, "[2]": {"settings": "literature (Bristow et al. 1996; Parsons et al. 1997); cited from earlier work"}, "[3]": {"test_system": "rats", "experiment": "Porsolt test (Forced Swim Test), systemic dosing", "type": "in vivo, rat", "procedure": "For the evaluation of the antidepressant actions of GLYX-13, the effect of GLYX-13 in the Porsolt test of depression was examined in rats. Porsolt testing is the most commonly used test for assessment of depression in animal model, Porsolt testing, also known as Forced Swim Test, is based on a behavioral trait that is sensitive to changes in affective state. During this test, the animal is placed in a tank (18 cm diameter×45 cm height) filled to 30 cm with 22-23° C. water. After placing the animal in the tank, the amount of time for which the rat is immobile when it stops struggling is measured. Porsolt test is based on the fact that antidepressants increase the latency to immobility and decrease the time for which the rat is immobile. […] The interpretation of the Porsolt test is that the antidepressants reinstate active coping mechanisms and decrease the passive immobility evoked by stress.\nIn order to evaluate the effectiveness of GLYX-13 as antidepressant, three month old FBNF1 rats were separated into two groups of 9 animals. The first group of rats was intravenously injected with 10 mg/kg GLYX-13 and the second group of animals was intravenously injected with PBS vehicle (1 ml/kg) in a blind manner via chronic subdural femoral vein access ports. Both groups of animals were injected 10 to 15 minutes before the start of testing.\nFor Porsolt testing, animals were given a 15 minute pre-test habituation in the tank to induce learned helplessness on day one. Following this, on the subsequent day, the animals were injected with GLYX-13 or vehicle 10-15 minutes before being placed into the tank for a 5 minute test session. After placing the animals in the tank, the amount of time for which each animal is immobile when it stops struggling (Mean Immobility Time) was measured. Decrease in Mean Immobility Time is a measure of the effectiveness of the antidepressant.\nA second experiment was performed in the same manner as Example 1, except that 2-3 month Sprague-Dawley rats were used, and treated with either intravenous (1, 3, 10, 32 mg/kg), subcutaneous (1, 3, 10, 32, 56, 100 mg/kg) injections of GLYX-13 or saline vehicle (1 mg/ml) 15 (i,v.) or 20 (s.c.) min before the start of the final 5 min test session. Ketamine (10 mg/kg i.p.) was given 60 min befbre the start of testing (Garcia et al., (2008) Prog Neuropsychopharmacol Biol Psychiatry, 32, 140-144).\nTo determine whether the antidepressant effect of GLYX-13 was specific to the sequence of the GLXY-13 peptide, mean time (sec) spent floating in the Porsolt test was determined in groups of 12 three-month old Sprague Dawley rats administered with GLYX-13 (TPPT-NH2 (SEQ ID NO: 13); 3 mg/kg , i.v. tail vein), a scrambled peptide (PTPT-NH3(SEQ ID NO: 19); 3 mg/kg i.v. tail vein), or 0.9% saline vehicle (1 ml/kg, i.v. tail vein). Administration occurred 60 min before the 5 min testing session. Animals received a 15 min training swim session one day before dosing.\nTo evaluate whether the anti-depressive and anxiolytic effects of GLYX-13 would persist beyond a few hours, rats were tested in the Porsolt test and the Open Field test, described above. Groups of 10-11 three-month old Sprague-Dawley rats were pretreated with GLYX-13 (3 mg/kg i.v.), ketamine (10 mg/kg i.v.) or saline vehicle injection (1 mg/ml i.v. tail vein) 96 hrs before the start of testing. Animals received a single 15 min. training swim session one day before dosing. Animals were tested 96 hrs post dosing in the Porsolt test without any testing during the intervening period. Open field testing was conducted without pre-habituation 1 day after Porsolt testing (i.e. 120 hrs post dosing). Mean(±SEM) time (sec.) spent floating in the Porsolt test, time spent in the center compartment (sec.), and line crosses in the open field test were determined.\nThe Porsolt test adapted for use in rats was performed as above. […]"}, "[4]": {"test_system": "rats", "experiment": "Drug discrimination in rats trained to discriminate ketamine from saline", "procedure": "Testing was conducted as described previously (Nicholson K L & Balster R L (2009) The discriminative stimulus effects of N-methyl-D-aspartate glycine-site ligands in NMDA antagonist-trained rats. Psychopharmacology (Berl) 203(2):441-451). Adult male Sprague Dawley rats were trained to discriminate ketamine (10 mg/kg IP) from saline. Animals were then tested following various doses of GLYX-13 administration (3-156 mg/kg SC) and the percent of ketamine lever responding and rates of responding were recorded."}, "[5]": {"test_system": "rats", "experiment": "Prepulse inhibition", "type": "in vivo, rat", "settings": "Sprague-Dawley rats; GLYX-13 10 mg/kg IV tested 15 min post injection; ketamine 10 mg/kg IP tested immediately", "procedure": "Animals were given intravenous injections of GLYX-13 (10 mg/kg) or saline via chronic indwelling femoral vein cannulae and tested 15 min post injection, or intraperitoneal ketamine (10 mg/kg) or saline vehicle (1 mL/kg IV or IP respectively) and tested immediately post injection for prepulse inhibition."}, "[6]": {"test_system": "rats", "experiment": "Conditioned place preference", "type": "in vivo, rat", "settings": "GLYX-13 10 mg/kg IV; ketamine 10 mg/kg IV", "procedure": "Animals were trained with GLYX-13 (10 mg/kg, IV), ketamine (10 mg/kg, IV), or saline vehicle (1 mL/kg, IV) utilizing an unbiased two-chamber conditioned place preference apparatus."}, "[7]": {"test_system": "glycogen synthase kinase 3β (GSK-3β)", "experiment": "Total and phosphoserine-9 GSK-3β by ELISA in medial prefrontal cortex", "type": "in vivo, rat", "settings": "24 hrs after GLYX-13 3 mg/kg IV or ketamine 10 mg/kg IV", "text": "(§1) Total and Phosphoserine-9 glycogen synthase kinase 3β (GSK-3β) were quantified by ELISA according to the manufacturer's instructions (catalog numbers ADI-900-144 and ADI-900-123A, Assay Designs, USA). Total and phosphoserine-845 GluR1 were quantified by Western blot."}, "[8]": {"test_system": "β-catenin", "experiment": "Total β-catenin protein level in medial prefrontal cortex", "type": "in vivo, rat", "settings": "24 hrs after GLYX-13 3 mg/kg IV or ketamine 10 mg/kg IV"}, "[9]": {"test_system": "GluR1", "experiment": "Total and phosphoserine-845 GluR1 by Western blot in medial prefrontal cortex", "type": "in vivo, rat", "settings": "24 hrs after GLYX-13 3 mg/kg IV or ketamine 10 mg/kg IV", "text": "as §1"}}}
{"smiles": "C[C@@H]([C@@H](O)c1ccc(O)cc1)N1CCC(O)(c2ccccc2)CC1", "note": "[CPC-101,606]", "values": [{"measurement": "Hamilton Depression Rating Score", "setting": "[1]", "result": "significant reductions"}]}
{"smiles": "O=c1[nH]c2cc(Cl)ccc2c(O)c1-c1cccc(Oc2ccccc2)c1", "note": "[L-701,324]", "values": [{"measurement": "anticonvulsant effects relative to ataxia (therapeutic index)", "setting": "[2]", "result": "anticonvulsant effects at doses that produced ataxia"}]}
{"smiles": "NS(=O)(=O)c1cccc2c1c([N+](=O)[O-])cc1nc(O)c(O)nc12", "note": "[NBQX, reference compound]", "values": [{"measurement": "effect of NBQX pretreatment on the antidepressant-like effect of GLYX-13 (floating time)", "setting": "[3]; NBQX 10 mg/kg IP before GLYX-13 3 mg/kg IV, tested 1 hr post dosing", "result": "blocked the antidepressant-like effect of GLYX-13"}]}
{"smiles": "CNC1(c2ccccc2Cl)CCCCC1=O", "note": "(stereo not drawn) [ketamine, reference compound]", "values": [{"measurement": "dissociative side effects", "setting": "[3]; 10 mg/kg subcutaneous, testing 20 min post dosing", "result": "severe dissociative side effects"}, {"measurement": "effect on floating times in the Porsolt test", "setting": "[3]; Sprague Dawley rats, 10 mg/kg IP, 20-60 min post dosing", "result": "reduced floating times"}, {"measurement": "suppression of operant responding (rates of responding)", "setting": "[4]; IP, 30 mg/kg (higher dose)", "result": "suppress operant responding"}, {"measurement": "ketamine-like discriminative stimulus effects (ketamine-lever selection)", "setting": "[4]; IP, 5.6-30 mg/kg", "result": "dose-dependent increases in ketamine-lever selection"}, {"measurement": "suppression of operant responding (rates of responding)", "setting": "[4]; SC, 10 mg/kg (higher dose)", "result": "suppress operant responding"}, {"measurement": "ketamine-like discriminative stimulus effects (ketamine-lever selection)", "setting": "[4]; SC, 1-10 mg/kg", "result": "dose-dependent increases in ketamine-lever selection"}, {"measurement": "prepulse inhibition, an indicator of dissociative effects", "setting": "[5]", "result": "decreased prepulse inhibition"}, {"measurement": "conditioned place preference, an indicator of abuse potential", "setting": "[6]", "result": "induced conditioned place preference"}, {"measurement": "phosphoserine-9 GSK-3β/total GSK-3β ratio", "setting": "[7]", "result": "reduced"}, {"measurement": "total β-catenin", "setting": "[8]", "result": "reduced"}, {"measurement": "Phosphoserine-845 GluR1/total GluR1 ratio", "setting": "[9]", "result": "increased"}, {"measurement": "Hamilton Depression Rating Score", "setting": "[1]", "result": "significant reductions"}]}
